# Read-outs that look alike come from different tables or passages of the source.
# Assays:
# Assay in all cases: in vitro antibacterial evaluation, MIC by broth dilution
# Type in all cases: cell-based
# Escherichia coli = conditions: Escherichia coli, broth dilution, 18 hours at 35° C.
# Method in brief: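 Broth dilution in Muller-Hinton II medium per NCCLS standard M7-A2, with an inoculum of 5×10^5 CFU/mL and antibiotic tested over 64-0.06 μg/mL. MIC was taken as the lowest concentration inhibiting visible growth.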
# Staphylococcus sp. = conditions: broth dilution, 18 hours at 35° C.
# Method in brief: (§1)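 Broth dilution per NCCLS standard M7-A2 in Muller-Hinton II […], with an inoculum of 5×10^5 CFU/mL and antibiotic spanning 64-0.06 μg/mL. The MIC is the lowest concentration that inhibits growth of the organism.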
# Enterococcus sp. = conditions: broth dilution, 18 hours at 35° C.
# Method in brief: as §1
# Streptococcus sp. = conditions: broth dilution, 18 hours at 35° C.
# Method in brief: as §1
smiles,measurement,setting,value
"Cc1cccc(Oc2ccc(-c3nc4cc(C[C@@H]5NC(=O)[C@H](C(C)c6ccccc6)NC(=O)CNC(=O)[C@H](CO)NC(=O)[C@H](C(O)C6CNC(=N)N6)NC(=O)[C@H](C(O)C6CNC(=N)N6)NC5=O)ccc4o3)cc2)c1 (stereo partly drawn) [Example 41, Cyclo[3-[2-[4-(3-methylphenoxy)phenyl]benzoxazol-5-yl]alanyl-3-(2-iminoimidazolidin-4-yl)-seryl-3-(2-iminoimidazolidin-4-yl)serylserylglycyl-β-methylphenylalanyl]]",MIC,"Escherichia coli; ATCC25922, strain ATCC 25922, read-out: MIC Escherichia coli (ATCC 25922)",> 64 µg/mL
same,MIC,"Escherichia coli; strain GC 4559, read-out: MIC Escherichia coli (GC 4559)",> 64 µg/mL
same,MIC,"Escherichia coli; strain GC 4560, read-out: MIC Escherichia coli (GC 4560)",> 64 µg/mL
same,MIC,"Staphylococcus sp.; Staphylococcus, strain GC 4543, read-out: MIC Staphylococcus aureus-SMITH (GC 4543)",> 64 µg/mL
same,MIC,"Staphylococcus sp.; Staphylococcus, strain GC 4547, read-out: MIC Coagulase Negative Staphylococcus (GC 4547)",64 µg/mL
same,MIC,"Staphylococcus sp.; Staphylococcus, strain GC 4548, read-out: MIC Coagulase Negative Staphylococcus (GC 4548)",> 64 µg/mL
same,MIC,"Staphylococcus sp.; Staphylococcus, strain GC 4549, read-out: MIC Coagulase Negative Staphylococcus (GC 4549)",32 µg/mL
same,MIC,"Staphylococcus sp.; Staphylococcus, strain GC 4551, read-out: MIC Coagulase Negative Staphylococcus (GC 4551)",64 µg/mL
same,MIC,"Staphylococcus sp.; strain ATCC 29213, read-out: MIC Staphylococcus aureus (ATCC 29213)",> 64 µg/mL
same,MIC,"Staphylococcus sp.; strain GC 1131, read-out: MIC Staphylococcus aureus (GC 1131)",> 64 µg/mL
same,MIC,"Staphylococcus sp.; strain GC 3051, read-out: MIC Staphylococcus aureus (GC 3051)",> 64 µg/mL
same,MIC,"Staphylococcus sp.; strain GC 3053, read-out: MIC Staphylococcus aureus (GC 3053)",> 64 µg/mL
same,MIC,"Staphylococcus sp.; strain GC 4541, read-out: MIC Staphylococcus aureus (GC 4541)",> 64 µg/mL
same,MIC,"Staphylococcus sp.; strain GC 4542, read-out: MIC Staphylococcus aureus (GC 4542)",> 64 µg/mL
same,MIC,"Staphylococcus sp.; strain GC 4544, read-out: MIC Staphylococcus aureus (GC 4544)",> 64 µg/mL
same,MIC,"Staphylococcus sp.; strain GC 4545, read-out: MIC Staphylococcus aureus (GC 4545)",> 64 µg/mL
same,MIC Staphylococcus aureus (ATCC 29213),Staphylococcus sp.; strain ATCC 29213,>64 µg/mL
same,MIC Staphylococcus aureus (GC 3051),Staphylococcus sp.; strain GC 3051,>64 µg/mL
same,MIC Staphylococcus aureus (GC 3053),Staphylococcus sp.; strain GC 3053,>64 µg/mL
same,MIC Staphylococcus aureus (GC 4541),Staphylococcus sp.; strain GC 4541,>64 µg/mL
same,MIC Staphylococcus aureus (GC 4542),Staphylococcus sp.; strain GC 4542,>64 µg/mL
same,MIC Staphylococcus aureus (GC 4544),Staphylococcus sp.; strain GC 4544,>64 µg/mL
same,MIC Staphylococcus aureus (GC 4545),Staphylococcus sp.; strain GC 4545,>64 µg/mL
same,MIC,"Staphylococcus sp.; strain GC 4546, read-out: MIC Staphylococcus haemolyticus (GC 4546)",64 µg/mL
same,MIC Enterococcus faecalis (ATCC 29212),Enterococcus sp.; strain ATCC 29212,64 µg/mL
same,MIC Enterococcus faecalis (GC 2242),Enterococcus sp.; strain GC 2242,64 µg/mL
same,MIC Enterococcus faecium (GC 2243),Enterococcus sp.; strain GC 2243,64 µg/mL
same,MIC Enterococcus faecalis (GC 2691),Enterococcus sp.; strain GC 2691,64 µg/mL
same,MIC Enterococcus faecalis (GC 3059),Enterococcus sp.; strain GC 3059,>64 µg/mL
same,MIC Enterococcus faecalis (GC 4552),Enterococcus sp.; strain GC 4552,64 µg/mL
same,MIC Enterococcus faecalis (GC 4553),Enterococcus sp.; strain GC 4553,64 µg/mL
same,MIC Enterococcus faecalis (GC 4554),Enterococcus sp.; strain GC 4554,64 µg/mL
same,MIC Enterococcus faecium (GC 4556),Enterococcus sp.; strain GC 4556,32 µg/mL
same,MIC Enterococcus faecium (GC 4557),Enterococcus sp.; strain GC 4557,64 µg/mL
same,MIC Enterococcus avium (GC 4558),Enterococcus sp.; strain GC 4558,64 µg/mL
same,MIC Enterococcus faecalis (GC 6189),Enterococcus sp.; strain GC 6189,>64 µg/mL
same,MIC,"Enterococcus sp.; strain ATCC 29212, read-out: MIC Enterococcus faecalis (ATCC 29212)",64 µg/mL
same,MIC,"Enterococcus sp.; strain GC 2242, read-out: MIC Enterococcus faecalis (GC 2242)",64 µg/mL
same,MIC,"Enterococcus sp.; strain GC 2243, read-out: MIC Enterococcus faecium (GC 2243)",64 µg/mL
same,MIC,"Enterococcus sp.; strain GC 2691, read-out: MIC Enterococcus faecalis (GC 2691)",64 µg/mL
same,MIC,"Enterococcus sp.; strain GC 3059, read-out: MIC Enterococcus faecalis (GC 3059)",> 64 µg/mL
same,MIC,"Enterococcus sp.; strain GC 4552, read-out: MIC Enterococcus faecalis (GC 4552)",64 µg/mL
same,MIC,"Enterococcus sp.; strain GC 4553, read-out: MIC Enterococcus faecalis (GC 4553)",64 µg/mL
same,MIC,"Enterococcus sp.; strain GC 4554, read-out: MIC Enterococcus faecalis (GC 4554)",64 µg/mL
same,MIC,"Enterococcus sp.; strain GC 4556, read-out: MIC Enterococcus faecium (GC 4556)",32 µg/mL
same,MIC,"Enterococcus sp.; strain GC 4557, read-out: MIC Enterococcus faecium (GC 4557)",64 µg/mL
same,MIC,"Enterococcus sp.; strain GC 4558, read-out: MIC Enterococcus avium (GC 4558)",64 µg/mL
same,MIC,"Enterococcus sp.; strain GC 6189, read-out: MIC Enterococcus faecalis (GC 6189)",> 64 µg/mL
same,MIC Streptococcus pneumoniae (ATCC 6301),Streptococcus sp.; strain ATCC 6301,64 µg/mL
same,MIC Streptococcus pneumoniae (GC 1894),Streptococcus sp.; strain GC 1894,64 µg/mL
same,MIC Streptococcus pyogenes (GC 4563),Streptococcus sp.; strain GC 4563,32 µg/mL
same,MIC Streptococcus agalactiae (GC 4564),Streptococcus sp.; strain GC 4564,64 µg/mL
same,MIC Streptococcus pneumoniae (GC 4565),Streptococcus sp.; strain GC 4565,>64 µg/mL
same,MIC,"Streptococcus sp.; strain ATCC 6301, read-out: MIC Streptococcus pneumoniae (ATCC 6301)",64 µg/mL
same,MIC,"Streptococcus sp.; strain GC 1894, read-out: MIC Streptococcus pneumoniae (GC 1894)",64 µg/mL
same,MIC,"Streptococcus sp.; strain GC 4563, read-out: MIC Streptococcus pyogenes (GC 4563)",32 µg/mL
same,MIC,"Streptococcus sp.; strain GC 4564, read-out: MIC Streptococcus agalactiae (GC 4564)",64 µg/mL
same,MIC,"Streptococcus sp.; strain GC 4565, read-out: MIC Streptococcus pneumoniae (GC 4565)",> 64 µg/mL

# Source: patent publication US6914045B2, “Glycopeptide antibiotics” (Wyeth Holdings Corporation, priority 2001, dated 2005)
